The subject of the assay is B/Hong-Kong/36/05, mutant strain, resistant to zanamivir and oseltamivir. Format: cell-based, influenza B.

Consider `CC(=O)N[C@H]1[C@H]([C@H](O)[C@H](O)CO)OC(C(=O)O)=C[C@@H]1N=C(N)N` [Zanamivir, zanamivir], for which half-maximal inhibition (IC50) required 210000 nM.

For the origin of these results see patent US20090081249A1 (priority 2007, published 2009).
